Data taken from patent publication US10226464B2, “Small molecule NF-κB inhibitors” (ImmuneTarget, Inc., priority 2015, dated 2019).

How the values were obtained:
[1] = test system: NF-κB; experiment: NF-κB GFP Assay (NFκB/Jurkat/GFP transcriptional reporter cell line); type: cell-based; settings: Homo sapiens; NF-κB/Jurkat/GFP reporter cells, TNF-α 5 ng/ml, 24 hours; read-out: NF-KB GFP IC50
Experimental: NFκB/Jurkat/GFP transcriptional reporter cell line was obtained from SBI System Biosciences. NF-κB/Jurkat/GFP™ Reporter cells (5×10^5 cells) were plated at a concentration of 1 million cells/ml into each well of a 24-well plate. TNF-α (5 ng/ml) was added. Compounds were added via serial dilutions to corresponding wells. After 24 hours, 100 μl of the cells were transferred to a well of a Costar® UV plate (96 well, No lid, w/ UV Transparent Flat Bottom, Corning, N.Y., Cat#3635) and the intensity of GFP fluorescence was measured (Excitation 485+/−20, Emission 528+/−20) in a Synergy™ HT Multi-Detection Microplate Reader (BioTech, Winooski, Vt.). The intensities of GFP measured were plotted against the […].

[2] = target: c-Rel protein (Homo sapiens (Human), UniProt Q04864); experiment: Electrophoretic Mobility Shift Assay (EMSA), Rel/NF-κB DNA binding inhibition; settings: 10 nM c-Rel protein, phosphor-labeled CD28RE oligonucleotide
Experimental: Electrophoretic Mobility Shift Assay (EMSA)
DNA binding reaction (20 μL) was carried out in 1×DNA Binding Buffer (10 mM Tris, 40 mM NaCl, 1 mM EDTA, 4% glycerol) with 10 nM c-Rel protein and 0.5 ng phosphor-labeled CD28RE oligonucleotide for 10 minutes at room temperature in 96-well plates. Test compounds, in serial dilutions, were added into each well, and further incubated for 15 minutes before loading onto native 5% polyacrylamide gel. Electrophoresis proceeded for 2.5 hours at 160V. Radioactive signals were quantified using Phospho-Imager. IC50 of compounds of example 1 to 75 were determined by quantifying the intensity of Rel/NF-κB inhibition in EMSA using phospho-imager. An example of EMSA data of the present invention is shown for compound 6 in FIG. 2.

Chain of c-Rel protein (Q04864 whole entry): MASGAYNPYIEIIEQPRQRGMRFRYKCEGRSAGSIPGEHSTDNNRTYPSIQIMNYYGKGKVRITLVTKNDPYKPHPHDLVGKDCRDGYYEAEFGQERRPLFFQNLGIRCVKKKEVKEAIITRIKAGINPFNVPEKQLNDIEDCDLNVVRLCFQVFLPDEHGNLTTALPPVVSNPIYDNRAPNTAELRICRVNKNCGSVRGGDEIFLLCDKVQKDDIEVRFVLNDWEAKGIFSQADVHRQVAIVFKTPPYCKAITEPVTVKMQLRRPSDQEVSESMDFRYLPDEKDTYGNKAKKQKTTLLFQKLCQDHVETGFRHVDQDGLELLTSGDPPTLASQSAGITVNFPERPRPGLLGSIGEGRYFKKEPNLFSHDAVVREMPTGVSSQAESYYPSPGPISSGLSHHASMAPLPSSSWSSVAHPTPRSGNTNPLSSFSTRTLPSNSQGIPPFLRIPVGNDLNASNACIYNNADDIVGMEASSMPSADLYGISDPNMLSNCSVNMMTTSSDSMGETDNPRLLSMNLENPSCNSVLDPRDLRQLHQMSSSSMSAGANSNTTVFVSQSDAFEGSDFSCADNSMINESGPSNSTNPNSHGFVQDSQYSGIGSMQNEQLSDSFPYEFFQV

| Compound | IC50 [1] | IC50 [2] |
| --- | --- | --- |
| COc1cccc2cc3c(=O)[nH]c(=O)nc-3oc12 [Compound 1, 9-methoxy-2H-chromeno[2,3-d]pyrimidine-2,4(3H)-dione] | < 30 µM | < 2 µM |
| CCOc1cccc2cc3c(=O)[nH]c(=O)nc-3oc12 [Compound 2, 9-ethoxy-2H-chromeno[2,3-d]pyrimidine-2,4(3H)-dione] | < 30 µM | < 2 µM |
| COc1cc(Cl)cc2cc3c(=O)[nH]c(=O)nc-3oc12 [Compound 3, 7-chloro-9-methoxy-2H-chromeno[2,3-d]pyrimidine-2,4(3H)-dione] | < 30 µM | < 2 µM |
| COc1cc(Br)cc2cc3c(=O)[nH]c(=O)nc-3oc12 [Compound 4, 7-bromo-9-methoxy-2H-chromeno[2,3-d]pyrimidine-2,4(3H)-dione] | < 30 µM | < 2 µM |
| CCOc1cc(Cl)cc2cc3c(=O)[nH]c(=O)nc-3oc12 [Compound 5] | < 30 µM | < 2 µM |
| COc1ccc2cc3c(=O)[nH]c(=O)nc-3oc2c1 [Compound 6, 8-methoxy-2H-chromeno[2,3-d]pyrimidine-2,4(3H)-dione] | < 10 µM | < 1 µM |
| COc1cc(Cl)cc2cc3c(=O)[nH]c(=S)nc-3oc12 [Compound 7, 7-chloro-9-methoxy-2-thioxo-2H-chromeno[2,3-d]pyrimidin-4(3H)-one] | < 30 µM | < 2 µM |
| COc1ccc2cc3c(=O)[nH]c(=S)nc-3oc2c1 [Compound 8, 8-methoxy-2-thioxo-2H-chromeno[2,3-d]pyrimidin-4(3H)-one] | < 30 µM | < 0.5 µM |
| O=c1nc2oc3ccccc3cc-2c(=O)[nH]1 [Compound 9, 2H-chromeno[2,3-d]pyrimidine-2,4(3H)-dione] | < 20 µM | < 5 µM |
| COc1ccc2oc3nc(=O)[nH]c(=O)c-3cc2c1 [Compound 10, 7-methoxy-2H-chromeno[2,3-d]pyrimidine-2,4(3H)-dione] | < 30 µM | < 1 µM |
| O=c1nc2oc3cc(O)ccc3cc-2c(=O)[nH]1 [Compound 11, 8-hydroxy-2H-chromeno[2,3-d]pyrimidine-2,4(3H)-dione] | < 20 µM | < 1 µM |
| Cc1ccc2cc3c(=O)[nH]c(=O)nc-3oc2c1 [Compound 12, 8-methyl-2H-chromeno[2,3-d]pyrimidine-2,4(3H)-dione] | 7 µM | < 1 µM |
| CCOc1ccc2cc3c(=O)[nH]c(=O)nc-3oc2c1 [Compound 13, 8-ethoxy-2H-chromeno[2,3-d]pyrimidine-2,4(3H)-dione] | 9 µM | < 1 µM |
| COc1cc(OC)c2cc3c(=O)[nH]c(=O)nc-3oc2c1 [Compound 14, 6,8-dimethoxy-2H-chromeno[2,3-d]pyrimidine-2,4(3H)-dione] | 8.2 µM | < 1 µM |
| COc1ccc2oc3nc(=S)[nH]c(=O)c-3cc2c1 [Compound 15, 7-methoxy-2-thioxo-2H-chromeno[2,3-d]pyrimidin-4(3H)-one] | < 30 µM | < 0.5 µM |
| O=c1[nH]c(=S)nc2oc3cc(O)ccc3cc1-2 [Compound 16, 8-hydroxy-2-thioxo-2H-chromeno[2,3-d]pyrimidin-4(3H)-one] | < 30 µM | < 0.5 µM |
| Cc1ccc2cc3c(=O)[nH]c(=S)nc-3oc2c1 [Compound 17, 8-methyl-2-thioxo-2H-chromeno[2,3-d]pyrimidin-4(3H)-one] | < 30 µM | < 0.5 µM |
| COc1cc(OC)c2cc3c(=O)[nH]c(=S)nc-3oc2c1 [Compound 18, 6,8-dimethoxy-2-thioxo-2H-chromeno[2,3-d]pyrimidin-4(3H)-one] | – | < 0.5 µM |
| CCCOc1ccc2cc3c(=O)[nH]c(=O)nc-3oc2c1 [Compound 19, 8-propoxy-2H-chromeno[2,3-d]pyrimidine-2,4(3H)-dione] | < 5 µM | < 1 µM |
| CCCOc1cc2oc3nc(=O)[nH]c(=O)c-3cc2cc1Cl [Compound 20, 7-chloro-8-propoxy-2H-chromeno[2,3-d]pyrimidine-2,4(3H)-dione] | < 5 µM | < 1 µM |
| CCCCCCOc1ccc2cc3c(=O)[nH]c(=O)nc-3oc2c1 [Compound 21, 8-(n-hexyloxy)-2H-chromeno[2,3-d]pyrimidine-2,4(3H)-dione] | < 5 µM | < 1 µM |
| CCOc1ccc2cc3c(=O)[nH]c(=O)nc-3oc2c1Cl [Compound 22, 9-chloro-8-ethoxy-2H-chromeno[2,3-d]pyrimidine-2,4(3H)-dione] | < 10 µM | < 1 µM |
| CC(C)COc1ccc2cc3c(=O)[nH]c(=O)nc-3oc2c1 [Compound 23, 8-isobutoxy-2H-chromeno[2,3-d]pyrimidine-2,4(3H)-dione] | < 5 µM | < 1 µM |
| CCCCn1c(=O)nc2oc3cc(OCC)ccc3cc-2c1=O [Compound 24, 3-(n-butyl)-8-ethoxy-2H-chromeno[2,3-d]pyrimidine-2,4(3H)-dione] | < 30 µM | < 1 µM |
| CCCc1cc2oc3nc(=O)[nH]c(=O)c-3cc2cc1Cl [Compound 25, 7-chloro-8-propyl-2H-chromeno[2,3-d]pyrimidine-2,4(3H)-dione] | < 30 µM | < 1 µM |
| CCCCn1c(=O)nc2oc3cc(OCC)c(Cl)cc3cc-2c1=O [Compound 26, 3-butyl-7-chloro-8-ethoxy-2H-chromeno[2,3-d]pyrimidine-2,4(3H)-dione] | < 30 µM | < 1 µM |

| Compound | IC50 [1] | IC50 [2] |
| --- | --- | --- |
| Cc1cc2oc3nc(=O)[nH]c(=O)c-3cc2cc1F [Compound 27, 7-fluoro-8-methyl-2H-chromeno[2,3-d]pyrimidine-2,4(3H)-dione] | < 5 µM | < 0.5 µM |
| CCOc1cc2oc3nc(=O)[nH]c(=O)c-3cc2cc1F [Compound 28, 8-ethoxy-7-fluoro-2H-chromeno[2,3-d]pyrimidine-2,4(3H)-dione] | < 5 µM | < 0.5 µM |
| CCCCOc1cc2oc3nc(=O)[nH]c(=O)c-3cc2cc1F [Compound 29] | < 5 µM | < 0.5 µM |
| CCCCCOc1cc2oc3nc(=O)[nH]c(=O)c-3cc2cc1F [Compound 30] | < 10 µM | < 0.5 µM |
| CCCCCCOc1cc2oc3nc(=O)[nH]c(=O)c-3cc2cc1F [Compound 31] | < 5 µM | < 0.5 µM |
| CCCCCCCOc1cc2oc3nc(=O)[nH]c(=O)c-3cc2cc1F [Compound 32] | < 5 µM | < 0.5 µM |
| CC(C)CCOc1cc2oc3nc(=O)[nH]c(=O)c-3cc2cc1F [Compound 33] | < 3 µM | < 0.5 µM |
| CC(C)(C)CCOc1cc2oc3nc(=O)[nH]c(=O)c-3cc2cc1F [Compound 34] | 10 µM | < 0.5 µM |
| CC(C)CCCOc1cc2oc3nc(=O)[nH]c(=O)c-3cc2cc1F [Compound 35] | < 10 µM | < 1 µM |
| CC(C)(C)COc1cc2oc3nc(=O)[nH]c(=O)c-3cc2cc1F [Compound 36] | < 10 µM | < 0.5 µM |
| CCCCCCOc1cc2oc3nc(=O)[nH]c(=O)c-3cc2cc1Cl [Compound 37] | < 20 µM | < 0.5 µM |
| CC(C)COc1cc2oc3nc(=O)[nH]c(=O)c-3cc2cc1Cl [Compound 38] | < 20 µM | < 0.5 µM |
| CCCCCOc1ccc2cc3c(=O)[nH]c(=O)nc-3oc2c1Cl [Compound 39] | < 3 µM | < 0.5 µM |
| CC(C)CCOc1ccc2cc3c(=O)[nH]c(=O)nc-3oc2c1Cl [Compound 40] | 5 µM | < 0.5 µM |
| CC(C)(C)CCOc1ccc2cc3c(=O)[nH]c(=O)nc-3oc2c1Cl [Compound 41] | < 10 µM | < 0.5 µM |
| CCCCCCCOc1ccc2cc3c(=O)[nH]c(=O)nc-3oc2c1Cl [Compound 42] | < 10 µM | < 0.5 µM |
| CCCCOc1ccc2cc3c(=O)[nH]c(=O)nc-3oc2c1Cl [Compound 43] | < 3 µM | < 0.5 µM |
| CCCCCCOc1ccc2cc3c(=O)[nH]c(=O)nc-3oc2c1Cl [Compound 44] | < 3 µM | < 0.5 µM |
| CCCCOc1ccc2cc3c(=O)[nH]c(=O)nc-3oc2c1F [Compound 45] | < 5 µM | < 0.5 µM |
| CCCCCCOc1ccc2cc3c(=O)[nH]c(=O)nc-3oc2c1F [Compound 46] | < 5 µM | < 0.5 µM |
| CC(C)CCCOc1ccc2cc3c(=O)[nH]c(=O)nc-3oc2c1F [Compound 47] | < 5 µM | < 1 µM |
| CC(C)COc1ccc2cc3c(=O)[nH]c(=O)nc-3oc2c1F [Compound 48] | < 5 µM | < 0.5 µM |
| CCOc1ccc2cc3c(=O)[nH]c(=O)nc-3sc2c1 [Compound 49, 8-ethoxy-2H-thiochromeno[2,3-d]pyrimidine-2,4(3H)-dione] | < 5 µM | < 1 µM |
| CCCCOc1ccc2cc3c(=O)[nH]c(=O)nc-3oc2c1 [Compound 50] | < 5 µM | < 1 µM |
| CC(=O)OCCCCOc1ccc2cc3c(=O)[nH]c(=O)nc-3oc2c1 [Compound 51] | < 5 µM | < 1 µM |
